Two compounds from PMC12751025, “α‑Aminoboronic Acid Moieties in Boro Dipeptides Modulate Proteasome Subunit Selectivity and Provide Access to Compounds with Potent Anticancer and Anti-Inflammatory Activity” (Journal of Medicinal Chemistry, 2025) can be followed below.

Series [1] deals with human umbilical vein endothelial cells. The series can be described thus: Cytotoxicity MTS assay. The following applies: 10, 50 and 250 nM, 72 h, MTS (Figure S2). It counts as cell-based.
Description: Cytotoxicity was determined using the MTS cell proliferation assay (CellTiter 96 AQueous One Solution Cell Proliferation Assay, Promega, Wisconsin, USA), which measures mitochondrial metabolic activity as a surrogate for cell viability. The assay was performed according to the manufacturer protocol. The cytotoxicity was performed on HepG2, MCF-7, MDA-MB-231, MOLT-4, MM.1S, THP-1, RAJI cell lines and on HUVECs as well as PBMCs. The cells were seeded in 96-well plates (15.000–30.000 cells/well). After 24 h incubation at 5% CO2 and 37 °C, the cells were treated either with DMSO (negative control) or solutions of the tested compounds in DMSO. After 24 or 72 h, MTS reagent was added. Cells were incubated for additional 2 h - 4 h, followed by the measurement of absorbance at 490 nm on the Tecan Spark microplate reader.
Series [2] in a line: Caco-2 permeability. The following applies: human; for Papp A→B at 90 min, 10 μM / Papp B→A at 90 min, 10 μM: pH 7.4, Caco-2, 10 μM; for Papp A→B at 90 min, 10 μM: apical-to-basolateral; for Papp B→A at 90 min, 10 μM: basolateral-to-apical. It counts as in vitro ADME. Here is the method:
Caco-2 cells were cultured in 75 cm2 flasks to 80-90% confluence in a humidified atmosphere at 37 °C and 5% CO2. Cells were detached with Trypsin/EDTA solution and resuspended in the complete medium containing DMEM high glucose (4500 mg/L) with L-glutamine (4 mM) supplemented with 10% […]
heat-inactivated Fetal Bovine Serum, 1% non-essential amino acids, and 730 nM puromycin and seeded at a density 5 × 10^5 cells in 75 cm2 flask. After 5 days, cells were trypsinized and resuspended in the complete medium to a final concentration of 600 × 10^3 cells/mL. 400 μL of the cell suspension was added to each well of the HTS 24-Multiwell Insert System and 25 mL of prewarmed complete medium was added to the feeder tray. Caco-2 cells were incubated in Multiwell Insert System for 6-10 days before the transport experiments. The medium in the filter plate and feeder tray was refreshed every other day. The 24-well insert plate was removed from its feeder plate and placed in a new sterile 24-well transport analysis plate. The inserts were washed with PBS after medium aspiration. Ketoprofen, atenolol, and digoxin were used as reference compounds.
To determine the rate of compounds transport in apical (A)-to-basolateral (B) direction, 300 μL of the test compound dissolved in transport buffer (Hanks’ BSS (9.5 g/L) and NaHCO3 (0.35 g/L) with MgSO4 to final concentration 0.81 mM, CaCl2 to final concentration 1.26 mM, HEPES to final concentration 25 mM, pH adjusted to 7.4) was added into the filter wells; 1000 μL of transport buffer was added to transport analysis plate wells. To determine transport rates in the basolateral (B)-to-apical (A) direction, 1000 μL of the test compound solutions was added into the wells of the transport analysis plate, the wells in the filter plate were filled with 300 μL of buffer. The final amount of reference and test compounds was 10 μM. The plates were incubated for 90 min at 37 °C under continuous shaking at 100 rpm. 75 μL aliquots were taken from the donor and receiver compartments for LC-MS/MS analysis. All samples were mixed with 2 volumes of acetonitrile followed by protein sedimentation by centrifuging at 10000 rpm for 10 min. Supernatants were analyzed using the HPLC system coupled with a tandem mass spectrometer. […]
The GIT model was simulated using the GIT-0 phospholipid mix.
Verapamil, quinidine (high permeability), and ranitidine (low permeability) were used as reference […]
All compounds were tested in triplicate. Prisma HT buffer (pH 7.4) containing 50 μM test compounds (0.5% DMSO) was added to the Donor Plate wells. Acceptor Sink Buffer was added to each well of the Acceptor Plate. Incubation was done at room temperature for 4 hours without stirring. After
On the technique in general: Caco-2 cells form a polarised layer with tight junctions and transporters.

Series [3] can be described thus: Kinetic solubility. Format: physicochemical. The following applies: 25 °C; for solubility at 2 h / solubility kinetic at 2 h: phosphate-buffered saline, pH 7.4, aqueous buffer, kinetic from dmso stock; for solubility at 2 h: read-out: PBS solubility, pH 7.4; for solubility kinetic at 2 h: CSV column, unit inferred. The method, then:
Briefly, using a 20 mM (10 mM for 5l) stock solution of the compound in 100% DMSO, dilutions were prepared to a theoretical concentration of 400 μM (200 μM for 5l) in duplicates in phosphate-buffered saline pH 7.4 (138 mM NaCl, 2.7 mM KCl, 10 mM K-phosphate) with 2% final DMSO. The experimental compound dilutions in PBS were further allowed to equilibrate at 25 °C on a thermostatic shaker for two hours and then filtered through HTS filter plates using a vacuum manifold. The filtrates of test compounds were diluted 2-fold with acetonitrile with 2% DMSO before measuring.
In parallel, using a 20 mM (10 mM for 5l) stock solution of the compound in 100% DMSO dilutions were prepared to theoretical concentrations of 0 μM (blank), […] (0 μM (blank), 10 μM, 25 50 μM, and 100 μM,μM for 5l) in 50% acetonitrile/PBS with 2% final DMSO to generate calibration curves. Ondansetron was used as a reference compound to control proper assay performance. 200 μL of each sample was transferred to a 96-well plate and measured in the 230-550 nm range with a 5 nm step. […]

The subject of series [4] is PBMCs. The series can be described thus: Cytotoxicity MTS assay. Format: cell-based, human. The following applies: 10, 50 and 250 nM, 24 h, MTS (Figure S1).
Description: Buffy coats from venous blood of anonymized healthy donors were purchased from Blood Transfusion Centre of Slovenia. PBMCs were isolated by density gradient centrifugation with Ficoll-Paque (Pharmacia, Sweden). The isolated cells were resuspended in RPMI 1640 medium (Sigma-Aldrich, St. Louis/MO, United States) supplemented with 10% heat-inactivated FBS (Gibco, ThermoFisher Scientific, Waltham/MA, United States), 2 mM L-glutamine (Sigma-Aldrich, St. Louis/MO, United States), 100 U/mL penicillin (Sigma-Aldrich, St. Louis/MO, United States), and 100 μg/mL streptomycin (Sigma-Aldrich, St. Louis/MO, United States).
Cytotoxicity was determined using the MTS cell proliferation assay (CellTiter 96 AQueous One Solution Cell Proliferation Assay, Promega, Wisconsin, USA), which measures mitochondrial metabolic activity as a surrogate for cell viability. The assay was performed according to the manufacturer protocol. The cytotoxicity was performed on HepG2, MCF-7, MDA-MB-231, MOLT-4, MM.1S, THP-1, RAJI cell lines and on HUVECs as well as PBMCs. The cells were seeded in 96-well plates (15.000–30.000 cells/well). After 24 h incubation at 5% CO2 and 37 °C, the cells were treated either with DMSO (negative control) or solutions of the tested compounds in DMSO. […] Cells were incubated for additional 2 h - 4 h, followed by the measurement of absorbance at 490 nm on the Tecan Spark microplate reader.
In series [5] the target is β2i subunit of human iCP (Homo sapiens, UniProt P40306+P49720). The series can be described thus: IC50 determination with fluorogenic substrate Ac-RLR-AMC (PA28β added).
Description: (§1) The measurements of the residual activity of control compounds were carried out at final compound concentrations of 1 μM in the assay buffer (50 mM Tris-HCl, 0.5 mM ethylenediaminetetraacetic acid (EDTA), pH 7.4). Stock solutions of the compounds were prepared in DMSO. To the 35 μL of solution of the compound in the buffer, 35 μL of 0.4 nM human iCP (South Bay Bio, San Jose, CA, USA) or human cCP (Boston Biochem, Inc., Cambridge, MA, USA) was added. For assays evaluating the activity of β2c and β2i, the buffer was modified by adding the proteasomal activator PA28β (Boston Biochem, Inc., Cambridge, MA, USA) at a final concentration of 6 nM. […] The substrates used were acetyl-Nle-Pro-Nle-Asp-7-amino-4-methylcoumarin (Ac-nLPnLD-AMC, Bachem, Bubendorf, Switzerland) for β1c, acetyl-Pro-Ala-Leu-7-amino-4-methylcoumarin (Ac-PAL-AMC, Boston Biochem, Inc., Cambridge, MA, USA) for β1i, acetyl-Arg-Leu-Arg-7-amino-4-methylcoumarin (Ac-RLR-AMC, Bachem, Bubendorf, Switzerland) for β2c and β2i, acetyl-Trp-Leu-Ala-7-amino-4-methylcoumarin (Ac-WLA-AMC, Bachem, Bubendorf, Switzerland) for β5c, and acetyl-Ala-Asn-Trp-7-amino-4-methylcoumarin (Ac-ANW-AMC, Bachem, Bubendorf, Switzerland) for β5i. Progress of the reaction was measured using a BioTek Synergy HT microplate reader, monitoring fluorescence at 460 nm (excitation at 360 nm) for 60 min at 37 °C. The initial linear ranges were used to calculate the reaction velocity and determine the residual activity.
(§2) The final assay mixtures contained 0.4 nM human iCP or cCP in assay buffer (50 mM Tris-HCl, 0.5 mM EDTA, pH 7.4, addition of PA28β for β2c and β2i subunits). […] After incubation at 37 °C for 30 min, the reaction was initiated by the addition of the substrate Ac-nLPnLD-AMC for β1c, Ac-PAL-AMC for β1i, Ac-RLR-AMC for β2c and β2i, Ac-WLA-AMC for β5c, and Ac-ANW-AMC for β5i. Fluorescence was monitored at 460 nm (excitation at 360 nm) for 60 min at 37 °C. The reaction progress was recorded and the initial linear phases were used to determine the velocity. The IC50 values were calculated using GraphPad Prism software (GraphPad Software, San Diego, CA, USA), and the results represent the mean values of at least three independent determinations.
The target in series [6] is T1, β2c subunit of human cCP (Homo sapiens, UniProt P49720+Q99436).
T1 construct: purchased Boston Biochem, Inc
The series is described as above. It counts as biochemical. Particulars: human cCP; mean of at least three experiments; NA: not active at 50 μM.
Description: Stock solutions of the compounds were prepared in DMSO. To the 35 μL of solution of the compound in the buffer, 35 μL of 0.4 nM human iCP (South Bay Bio, San Jose, CA, USA) or human cCP (Boston Biochem, Inc., Cambridge, MA, USA) was added. For assays evaluating the activity of β2c and β2i, the buffer was modified by adding the proteasomal activator PA28β (Boston Biochem, Inc., Cambridge, MA, USA) at a final concentration of 6 nM. […] The substrates used were acetyl-Nle-Pro-Nle-Asp-7-amino-4-methylcoumarin (Ac-nLPnLD-AMC, Bachem, Bubendorf, Switzerland) for β1c, acetyl-Pro-Ala-Leu-7-amino-4-methylcoumarin (Ac-PAL-AMC, Boston Biochem, Inc., Cambridge, MA, USA) for β1i, acetyl-Arg-Leu-Arg-7-amino-4-methylcoumarin (Ac-RLR-AMC, Bachem, Bubendorf, Switzerland) for β2c and β2i, acetyl-Trp-Leu-Ala-7-amino-4-methylcoumarin (Ac-WLA-AMC, Bachem, Bubendorf, Switzerland) for β5c, and acetyl-Ala-Asn-Trp-7-amino-4-methylcoumarin (Ac-ANW-AMC, Bachem, Bubendorf, Switzerland) for β5i. Progress of the reaction was measured using a BioTek Synergy HT microplate reader, monitoring fluorescence at 460 nm (excitation at 360 nm) for 60 min at 37 °C. The initial linear ranges were used to calculate the reaction velocity and determine the residual activity.
as §2

Series [7] concerns the target T2, β1c subunit of human cCP (Homo sapiens, UniProt P28072+Q99436).
T2 construct: purchased Boston Biochem, Inc
As to the kind of experiment: IC50 determination with subunit-specific fluorogenic substrate Ac-nLPnLD-AMC. It counts as biochemical. Particulars: human cCP; mean of at least three experiments; NA: not active at 50 μM.
Description: as §1, §2

The target in series [8] is β1i subunit of human iCP (Homo sapiens, UniProt P28065+P40306). The series can be described thus: IC50 determination with subunit-specific fluorogenic substrate Ac-PAL-AMC. The following applies: IC50 β1i, human iCP; mean of at least three experiments; NA: not active at 50 μM.
Description: as §1, §2
In series [9] the target is β5i subunit of human iCP (Homo sapiens, UniProt P20618+P28062). The series can be described thus: IC50 determination with fluorogenic substrate Ac-ANW-AMC. The following applies: IC50 β5i, human iCP; mean of at least three experiments; NA: not active at 50 μM.
Description: as §1, §2
For series [10], the target named is T3, β5c subunit of human cCP (Homo sapiens, UniProt P20618+P28074).
T3 construct: purchased Boston Biochem, Inc
The series can be described thus: IC50 determination with fluorogenic substrate Ac-WLA-AMC. Format: biochemical. Particulars: human cCP; mean of at least three experiments; NA: not active at 50 μM.
Description: as §1, §2

Setting [11] is: kinetic solubility, 2% DMSO, two hours, theoretical concentration 400 μM (200 μM for 5l).

Values after ≈ are worked out from the molar mass of the structure shown. Some results are limits rather than exact numbers.

By Papp A→B is commonly meant how fast a substance crosses the layer from the apical side. A higher Papp A→B goes with ready permeation. As a reminder, the Papp B→A is the apparent permeability from the basolateral to the apical side of a cell layer. One may read the solubility as the dissolved amount per volume that the medium holds. One may read the kinetic solubility as solubility judged after dilution from a stock solution rather than from solid. Regarding `CC(C)C[C@H](NC(=O)[C@H](Cc1ccccc1)NC(=O)c1cnccn1)B(O)O` [bortezomib, reference compound], the “cytotoxic effect on human umbilical vein endothelial cells” value in series [1] is reported as “more cytotoxic”. In [2], this compound displayed a Papp A→B at 90 min, 10 μM of 2.8 ± 0.1 ×10⁻⁶ cm/s and a Papp B→A at 90 min, 10 μM of 20.7 ± 0.1 ×10⁻⁶ cm/s. For the same compound, in series [3] (setting [11]), the “PBS solubility, pH 7.4” value is on record as over 200 μM and the solubility at 2 h came to 399 µM (≈ 153 µg/mL). In addition, the solubility (kinetic) at 2 h in series [3] is 399 µM (≈ 153 µg/mL). In addition, the “cytotoxic effect on PBMCs” value in series [4] is listed as “more cytotoxic”.

The IC50 is the point on the concentration scale where inhibition reaches its midpoint. A low value points to greater potency in that assay. Broadly, the efflux ratio is a quotient of directional permeabilities that is used to spot active efflux. On to `O=C(N[C@@H](Cc1ccccc1)C(=O)N[C@H](B(O)O)C1CCCC1)c1cnccn1` [5l, ((R)-Cyclopentyl((S)-3-phenyl-2-(pyrazine-2-carboxamido)propanamido)methyl)boronic Acid], for which the IC50 stood at 1000 nM in [5]; 37400 nM in [6]; 18 nM in series [7]; 3 nM in series [8]; 58 nM in [9]; 44 nM in series [10]. In addition, in [2] (Caco-2, pH 7.4, quotient of Papp(BA) to Papp(AB)), the efflux ratio at 90 min, 10 μM stood at 8.4. Further, the Papp A→B at 90 min, 10 μM in series [2] was determined as 2 ± 0.2 ×10⁻⁶ cm/s. Also, the Papp B→A at 90 min, 10 μM in [2] was found to be 17.1 ± 1 ×10⁻⁶ cm/s. For the same compound, the solubility at 2 h in series [3] (setting [11]) is at least 200 µM. In series [3], this compound showed a kinetic solubility at 2 h of over 200 µM.
